Values after ≈ are worked out from the molar mass of the structure shown.

The conditions of the data set: for solubility: 25 °C.

The term logP denotes a log measure of how a compound divides between an organic and an aqueous phase. The low end stands for lower lipophilicity, the high end for higher lipophilicity. In general, solubility refers to how much of the substance goes into solution per volume. In turn, `NS(=O)(=O)c1ccc(S(=O)(=O)CCO)cc1` yielded a logP of -0.85 and a solubility of 24.9 mM (≈ 6600 µg/mL).

Compound `Nc1cc(S(N)(=O)=O)ccc1S(=O)(=O)CCO` displayed a logP of -0.6.

As for `NS(=O)(=O)c1ccc(SCCCCO)cc1`, the log partition coefficient (logP) worked out at 0.93 and the solubility amounted to 3.06 mM (≈ 800 µg/mL).

`NS(=O)(=O)c1ccc(SCCCCCO)cc1` registered a logP of 1.04 and a solubility of 2.18 mM (≈ 600 µg/mL).

For the compound `CC(C)CNCCS(=O)(=O)c1ccc(S(N)(=O)=O)cc1`, the logP is 0.23.

For `COC(=O)c1cc(S(N)(=O)=O)ccc1S(=O)(=O)CCO`, the logP is -0.47.

As for `NS(=O)(=O)c1ccc(S(=O)(=O)CCCCO)c(F)c1`, the logP was -0.26.

`NS(=O)(=O)c1ccc(SCCCCO)s1` had a logP of 0.95 and a solubility of 34.8 mM (≈ 9300 µg/mL).

The compound `CC(C)(O)CCS(=O)(=O)c1ccc(S(N)(=O)=O)cc1` came in with a logP of -0.09 and a solubility of 11.4 mM (≈ 3500 µg/mL).

As for `NS(=O)(=O)c1ccc(S(=O)(=O)CCCCO)s1`, the logP is -0.34.

Compound `NS(=O)(=O)c1ccc(S(=O)(=O)CCCO)c(F)c1` came in with a logP of -0.41 and a solubility of 22.2 mM (≈ 6600 µg/mL).

Compound `NS(=O)(=O)c1ccc(S(=O)(=O)CCCCO)cc1` had a solubility of 7.16 mM (≈ 2100 µg/mL).

The compound `CC(C)(O)CCSc1ccc(S(N)(=O)=O)cc1` displayed a logP of 1.4 and a solubility of 1.45 mM (≈ 400 µg/mL).

With `NS(=O)(=O)c1ccc(CCCO)cc1`, the logP was 0.17 and the solubility stood at 92.9 mM (≈ 20000 µg/mL).

`NS(=O)(=O)c1ccc(SCCO)c(F)c1` displayed a lipophilicity (logP) of 0.72 and a solubility of 23.9 mM (≈ 6000 µg/mL).

`NS(=O)(=O)c1ccc(S(=O)(=O)CCCO)cc1` yielded a logP of -0.64 and a solubility of 25.8 mM (≈ 7200 µg/mL).

For `CC(=O)OCCCCCc1ccc(S(N)(=O)=O)cc1`, the logP came to 1.86.

The compound `NS(=O)(=O)c1ccc(SCCCO)cc1` returned a logP of 0.8 and a solubility of 5.66 mM (≈ 1400 µg/mL).

In turn, `COC(=O)c1cc(S(N)(=O)=O)ccc1SCCCO` showed a logP of 0.74.

In the case of `NS(=O)(=O)c1ccc(SCCCO)c(F)c1`, the logP came to 0.99 and the solubility is 3.39 mM (≈ 900 µg/mL).

`CC(=O)OCCCc1ccc(S(N)(=O)=O)cc1` showed a logP of 0.98.

`NS(=O)(=O)c1ccc(SCCCCO)c(F)c1` displayed a logP of 1.28 and a solubility of 3.58 mM (≈ 1000 µg/mL).

Compound `NS(=O)(=O)c1ccc(SCCO)cc1` came in with a logP of 0.36 and a solubility of 15 mM (≈ 3500 µg/mL).

For the compound `COC(=O)c1cc(S(N)(=O)=O)ccc1S(=O)(=O)CCCO`, the logP was -0.3.

On to `NS(=O)(=O)c1ccc(SCCCO)c([N+](=O)[O-])c1`, for which the logP was determined as 0.96 and the solubility is 0.342 mM (≈ 100 µg/mL).

Compound `NS(=O)(=O)c1ccc(SCCCO)c(Cl)c1` registered a logP of 1.59.

In turn, `COCC(=O)OCCCS(=O)(=O)c1ccc(S(N)(=O)=O)s1` showed a log partition coefficient (logP) of -0.14.

In turn, `CC(=O)OCCS(=O)(=O)c1ccc(S(N)(=O)=O)s1` showed a logP of 0.11.

On to `NS(=O)(=O)c1ccc(S(=O)(=O)CCO)c(F)c1`, for which the logP is -0.6 and the solubility amounted to 11.6 mM (≈ 3300 µg/mL).

The compound `Nc1cc(S(N)(=O)=O)ccc1S(=O)(=O)CCCO` showed a logP of -0.48.

Regarding `NS(=O)(=O)c1ccc(CCCCCO)cc1`, the logP is 1.04 and the solubility worked out at 10.7 mM (≈ 2600 µg/mL).

In turn, `NS(=O)(=O)c1ccc(SCCO)c([N+](=O)[O-])c1` gave a logP of 0.38 and a solubility of 1.8 mM (≈ 500 µg/mL).

As to `CC(=O)OCCCS(=O)(=O)c1ccc(S(N)(=O)=O)s1`, the log partition coefficient (logP) is 0.17.

As to `NS(=O)(=O)c1ccc(S(=O)(=O)CCCO)s1`, the logP was -0.36.

Regarding `NS(=O)(=O)c1ccc(SCCCO)s1`, the logP is 0.85.

The compound `NS(=O)(=O)c1ccc(CCCCO)cc1` registered a lipophilicity (logP) of 0.57 and a solubility of 64.1 mM (≈ 14700 µg/mL).

Source of the values: the OPERA property sets (Mansouri et al. 2018).
